Experimental findings from patent US7205403B2, “8-Heteroaryl xanthine adenosine A2B receptor antagonists” (King Pharmaceuticals Research and Development, Inc., priority 2002, dated 2007) are described below.

Assay [1] concerns the target T1, human A3 adenosine receptor (Homo sapiens, UniProt P0DMS8).
T1 construct: expressed in transfected cells; host or cells: CHO cells (membranes)
T1 sequence (P0DMS8 1-318): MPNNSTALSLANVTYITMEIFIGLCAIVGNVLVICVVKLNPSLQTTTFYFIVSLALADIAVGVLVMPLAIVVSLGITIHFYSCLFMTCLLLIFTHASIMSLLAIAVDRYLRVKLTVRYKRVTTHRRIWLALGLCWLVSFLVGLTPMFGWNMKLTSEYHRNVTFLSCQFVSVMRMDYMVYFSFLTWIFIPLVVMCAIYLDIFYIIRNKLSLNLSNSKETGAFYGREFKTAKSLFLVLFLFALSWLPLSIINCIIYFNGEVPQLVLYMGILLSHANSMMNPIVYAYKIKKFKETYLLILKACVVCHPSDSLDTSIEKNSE
Nature of the assay: [3H]MRE3008F20 binding to human A3 receptors expressed in CHO cells. The procedure, abridged:
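CHO cell membranes (50 μg protein) competed against 1 nM [3H]-MRE3008-F20 in 50 mM Tris HCl, MgCl2, pH 7.4, with 6–8 ligand concentrations in duplicate, 120 minutes at 4° C. Filter-bound radioactivity counted by scintillation; inhibitory binding constants derived.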

Assay [2] has as its target T2, human A1 adenosine receptor (Homo sapiens, UniProt P30542).
T2 construct: expressed in transfected cells; host or cells: CHO cells (membranes)
T2 sequence (P30542 1-326): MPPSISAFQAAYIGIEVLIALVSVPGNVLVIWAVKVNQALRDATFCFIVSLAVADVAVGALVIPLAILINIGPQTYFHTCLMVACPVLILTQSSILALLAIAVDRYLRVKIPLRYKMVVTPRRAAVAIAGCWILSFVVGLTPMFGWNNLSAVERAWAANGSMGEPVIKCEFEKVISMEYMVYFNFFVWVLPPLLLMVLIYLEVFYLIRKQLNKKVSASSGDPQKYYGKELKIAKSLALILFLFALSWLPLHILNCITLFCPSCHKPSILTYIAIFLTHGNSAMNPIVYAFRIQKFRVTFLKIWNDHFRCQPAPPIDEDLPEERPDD
The assay is described as follows: [3H]DPCPX binding to human A1 receptors expressed in CHO cells. Conditions: geometric mean (95% confidence interval); >1000 = no appreciable binding.

Assay [3] has as its target T3, human A2A adenosine receptor (Homo sapiens, UniProt P29274).
T3 construct: expressed in transfected cells; host or cells: CHO cells (membranes)
Nature of the assay: [3H]ZM241385 binding to human A2A receptors expressed in CHO cells. The procedure, abridged: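 Membranes from adherent CHO cells, resuspended in 50 mM Tris HCl with 10 mM MgCl2, pH 7.4. The inhibitory binding constant is reported.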

Assay [4] deals with T4, human A2B adenosine receptor (Homo sapiens, UniProt P29275).
T4 sequence (P29275 1-332): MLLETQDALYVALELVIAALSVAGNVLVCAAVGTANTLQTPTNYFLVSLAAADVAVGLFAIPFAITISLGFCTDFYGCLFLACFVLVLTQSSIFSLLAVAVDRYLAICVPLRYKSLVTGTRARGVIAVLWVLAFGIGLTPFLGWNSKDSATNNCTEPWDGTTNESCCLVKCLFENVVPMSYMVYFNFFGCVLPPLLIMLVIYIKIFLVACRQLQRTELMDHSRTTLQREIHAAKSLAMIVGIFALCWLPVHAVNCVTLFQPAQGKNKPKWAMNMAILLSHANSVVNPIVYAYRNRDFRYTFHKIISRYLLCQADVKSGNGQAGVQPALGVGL
The assay is described as follows: [3H]DPCPX binding to human A2B receptors expressed in HEK293 cells. Also noted: host or cells: HEK 293 cells (membranes). The procedure, abridged:
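Membranes (20 μg protein) from HEK293 cells expressing recombinant human A2B receptor were incubated 60 min at 25° C with 40 nM [3H]-DPCPX and 6–8 compound concentrations. Buffer was Tris-HCl with MgCl2, 1 mM EDTA, 0.1 mM benzamidine and 2 IU/ml adenosine deaminase, pH 7.4. Filter-bound radioactivity gave the inhibitory binding constant.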

Assay [5] addresses T4, human A2B adenosine receptor. The assay is described as follows: Cyclic AMP assay, antagonism of NECA-stimulated cAMP in CHO cells transfected with human A2B receptors. It is filed as cell-based. On the procedure: Measurement of cyclic AMP (CAMP) levels in CHO cells transfected with human A2B adenosine receptors was performed in the following manner. CHO cells transfected with human A2B adenosine receptors were washed with phosphate-buffered saline, diluted tripsine and centrifuged for 10 minutes at 200 g.
The reaction was terminated by the addition of cold 6% thrichloroacetic acid (TCA). The TCA suspension was centrifuged at 2000 g for 10 minutes at 4° C. and the supernatant was extracted four times with water saturated diethyl ether. The final aqueous, solution was tested for cAMP levels by a competition protein binding assay. Samples of cAMP standard (0–10 pmoles) were added to each test tube containing the incubation buffer (trizma base 0.1 M, aminophylline 8.0 mM, 2-mercaptoethanol 6.0 mM, pH 7.4) and [H^3]-cAMP in a total volume of 0.5 ml. The binding protein previously prepared from beef adrenals, was added to the samples previously incubated at 4° C. for 150 minutes, and after the addition of charcoal were centrifuged at 2000 g for 10 minutes. The clear supernatant was counted in a Beckman scintillation counter.
Finally, to evaluate the regulation of adenylyl cyclase activity and to test whether the binding parameters correlated with the functional response, the IC50 values were obtained for inhibition of cAMP production by antagonists. In particular, we evaluated the capability of the several compounds to inhibit NECA (100 nM)-stimulated cyclic AMP accumulation.

[6] abbreviates: read-out: Ki, [3H]ZM241385 binding to human A2A receptors expressed in CHO cells.
Where [7] appears, read: Table 2, geometric mean (95% confidence limits), at least three experiments in duplicate, read-out: [3H]-DPCPX binding to human A2B receptors in HEK 293 cells Ki.
Where [8] appears, read: geometric mean (95% confidence interval), >1000 = no appreciable binding, read-out: Ki, [3H]DPCPX binding to human A2B receptors expressed in HEK293 cells.
Setting [9] is: inhibition of NECA (100 nM)-stimulated cAMP, geometric mean (95% confidence limits).
Setting [10] is: geometric mean (95% confidence interval), >1000 = no appreciable binding.

“Also recorded” adds a separate entry of the source. Like-named read-outs stand apart in the source and are kept apart here. Where only a bound is given, the exact number is not on record here.

T3 sequence (P29274 whole entry): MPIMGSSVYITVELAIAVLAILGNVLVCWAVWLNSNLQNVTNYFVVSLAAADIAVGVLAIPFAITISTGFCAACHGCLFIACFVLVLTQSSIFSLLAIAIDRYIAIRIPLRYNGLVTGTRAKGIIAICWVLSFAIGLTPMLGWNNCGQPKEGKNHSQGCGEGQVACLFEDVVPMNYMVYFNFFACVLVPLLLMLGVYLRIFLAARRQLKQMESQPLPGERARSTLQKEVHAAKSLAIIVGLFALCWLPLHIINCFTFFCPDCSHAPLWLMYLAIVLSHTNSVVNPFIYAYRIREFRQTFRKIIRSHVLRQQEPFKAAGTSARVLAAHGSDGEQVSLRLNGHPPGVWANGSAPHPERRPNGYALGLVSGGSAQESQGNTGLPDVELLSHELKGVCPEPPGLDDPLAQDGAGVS

With `CCCn1c(=O)c2[nH]c(-c3cc(NC(=O)Cc4ccc(Cl)cc4)nn3C)nc2n(CCC)c1=O` [AS27, N-[5-(2,6-dioxo-1,3-dipropyl-2,3,6,9-tetrahydro-1H-purin-8-yl)-1-methyl-1H-pyrazol-3-yl]-2-(4-chlorophenyl)acetamide], the Ki (in general, a measure of affinity in units of concentration, obtained from inhibition or displacement) in assay [1] is > 1000 nM; in assay [2], 520 nM; in assay [3] (setting [6]) it was > 1000 nM; in assay [4] (setting [7]), 28 nM; in assay [4] (setting [8]), 28 nM. In assay [5] (setting [9]), the IC50 – broadly, the concentration that gives 50% inhibition – is 128 nM.
As to `CCCn1c(=O)c2[nH]c(-c3cc(NC(=O)Cc4ccc(OCc5ccccc5C(F)(F)F)cc4)nn3C)nc2n(CCC)c1=O` [AS29, N-[5-(2,6-dioxo-1,3-dipropyl-2,3,6,9-tetrahydro-1H-purin-8-yl)-1-methyl-1H-pyrazol-3-yl]-2-(4-{[2-(trifluoromethyl)benzyl]oxy}phenyl)acetamide], the inhibitory constant (Ki) is > 1000 nM in assay [1]; 56 nM in assay [2]; > 1000 nM in assay [3] (setting [6]); 13 nM in assay [4] (setting [7]); 13 nM in assay [4] (setting [8]). In assay [5] (setting [9]), this molecule returned an IC50 of 93 nM.
For the molecule `CCCn1c(=O)c2[nH]c(-c3cc(NC(=O)Cc4ccc(OC)c(OC)c4)nn3C)nc2n(CCC)c1=O` [AS28, 2-(3,4-dimethoxyphenyl)-N-[5-(2,6-dioxo-1,3-dipropyl-2,3,6,9-tetrahydro-1H-purin-8-yl)-1-methyl-1H-pyrazol-3-yl]acetamide], the inhibitory constant (Ki) in assay [1] is > 1000 nM; in assay [3] (setting [6]), > 1000 nM; in assay [4] (setting [7]), 38 nM; in assay [4] (setting [8]) it was 38 nM. Also, in assay [1] (setting [10]), the “Ki, [3H]MRE3008F20 binding to human A3 receptors expressed in CHO cells” value is on record as “no appreciable binding; also recorded: without significant binding”. For the same molecule, the “Ki, [3H]DPCPX binding to human A1 receptors expressed in CHO cells” value in assay [2] was “no appreciable binding; also recorded: without significant binding”. Besides, in assay [3] (setting [10]), the “Ki, [3H]ZM241385 binding to human A2A receptors expressed in CHO cells” value was “no appreciable binding; also recorded: without significant binding”. The same molecule gave a concentration for half-maximal inhibition (IC50) in assay [5] (setting [9]) of 120 nM.
For `CCCn1c(=O)c2[nH]c(-c3cc(NC(=O)Nc4cccc(Cl)c4)nn3C)nc2n(CCC)c1=O` [AS54, N-(3-chlorophenyl)-N'-[5-(2,6-dioxo-1,3-dipropyl-2,3,6,7-tetrahydro-1H-purin-8-yl)-1-methyl-1H-pyrazol-3-yl]urea], the inhibition constant Ki in assay [1] is > 1000 nM; in assay [2], 448 nM; in assay [3] (setting [6]) it was > 1000 nM; in assay [4] (setting [7]), 39 nM; in assay [4] (setting [8]), 39 nM. Also, in assay [5], 136 nM corresponded to half-maximal inhibition (IC50).
`CCCn1c(=O)c2[nH]c(-c3cc(NC(=O)Cc4ccc5c(c4)OCO5)nn3C)nc2n(CCC)c1=O` [AS57, 2-(1,3-benzodioxol-5-yl)-N-[5-(2,6-dioxo-1,3-dipropyl-2,3,6,9-tetrahydro-1H-purin-8-yl)-1-methyl-1H-pyrazol-3-yl]acetamide]: the inhibition constant (Ki) was > 1000 nM in assay [1]; 566 nM in assay [2]; 1250 nM in assay [3]; 18 nM in assay [4] (setting [7]); 18 nM in assay [4] (setting [8]). The midpoint of inhibition in assay [5] (setting [9]), the IC50, lay at 95 nM.
For the molecule `CCCn1c(=O)c2[nH]c(-c3cc(OCC(=O)Nc4ccc(Br)cc4)nn3C)nc2n(CCC)c1=O` [AS65, 2-{[5-(2,6-dioxo-1,3-dipropyl-2,3,6,9-tetrahydro-1H-purin-8-yl)-1-methyl-1H-pyrazol-3-yl]oxy}-N-(4-bromophenyl)acetamide], the Ki in assay [1] is > 1000 nM; in assay [2] it was 150 nM; in assay [3] (setting [6]) it was > 1000 nM; in assay [4] (setting [7]), 20 nM; in assay [4] (setting [8]) it was 20 nM. For the same molecule, the IC50 in assay [5] (setting [9]) is 108 nM.
`CCCn1c(=O)c2[nH]c(-c3cc(NC(=O)Cc4ccccc4)nn3C)nc2n(CCC)c1=O` [AS11, N-[5-(2,6-dioxo-1,3-dipropyl-2,3,6,9-tetrahydro-1H-purin-8-yl)-1-methyl-1H-pyrazol-3-yl]-2-phenylacetamide]: the inhibition constant (Ki) in assay [1] was > 1000 nM; in assay [2], 900 nM; in assay [3] (setting [6]), > 1000 nM; in assay [4] (setting [7]), 35 nM; in assay [4] (setting [8]), 35 nM. In assay [5] (setting [9]), this molecule showed an IC50 of 103 nM.
On to `CCCn1c(=O)c2[nH]c(-c3cc(NC(=O)Cc4ccccc4)n(C)n3)nc2n(CCC)c1=O` [AS35], for which the Ki in assay [4] (setting [7]) and in assay [4] (setting [8]) was 34 nM each time. In assay [5] (setting [9]), this molecule showed an IC50 of 152 nM.
